Experimental data published in patent publication US11667631B2, “FGFR4 inhibitor, preparation method therefor, and applications thereof” (Jiangsu Hansoh Pharmaceutical Group Co., Ltd., priority 2016, dated 2023).
Like-named read-outs stand apart in the source and are kept apart here.

Experiments:
[1] = system: Hep 3B cells; assay: Inhibition of Hep 3B cell proliferation (CellTiter-Glo); type: cell-based; settings: Homo sapiens, Hep3B
Protocol: In this experiment, the inhibitory effect of the compounds on Hep 3B cell proliferation was tested by a CellTiter-Glo method, and the half maximal inhibitory concentration (IC50) of the compounds on the activity of cell proliferation was determined.
1) A 96-well cell culture plate was seeded with 50˜100 μL of Hep 3B cell suspension at a density of 1˜5×10^4 cells/ml. The culture plate was incubated in an incubator for 16˜24 hours (37° C., 5% CO2).
(§1) 2) Different concentrations of the test compound in a gradient dilution were added to the cells in the culture plate. The culture plate was incubated in an incubator for 72 hours (37° C., 5% CO2).
(§2) 3) 50˜100 μL of CellTiter-Glo reagent were added to each well. Then, the culture plate was shaken or left to stand for 5˜30 minutes at room temperature.
(§3) 4) The chemiluminescence signal values of each plate were determined by a microplate reader.
(§4) 5) The inhibition rates were calculated according to the chemiluminescence signal values.

[2] = target: FGFR4 kinase (Homo sapiens (Human), UniProt P22455); assay: Enzymologic experiment of FGFR4 (TR-FRET); type: biochemical; settings: FGFR4 kinase activity
Sequence of FGFR4 kinase (P22455 22-802): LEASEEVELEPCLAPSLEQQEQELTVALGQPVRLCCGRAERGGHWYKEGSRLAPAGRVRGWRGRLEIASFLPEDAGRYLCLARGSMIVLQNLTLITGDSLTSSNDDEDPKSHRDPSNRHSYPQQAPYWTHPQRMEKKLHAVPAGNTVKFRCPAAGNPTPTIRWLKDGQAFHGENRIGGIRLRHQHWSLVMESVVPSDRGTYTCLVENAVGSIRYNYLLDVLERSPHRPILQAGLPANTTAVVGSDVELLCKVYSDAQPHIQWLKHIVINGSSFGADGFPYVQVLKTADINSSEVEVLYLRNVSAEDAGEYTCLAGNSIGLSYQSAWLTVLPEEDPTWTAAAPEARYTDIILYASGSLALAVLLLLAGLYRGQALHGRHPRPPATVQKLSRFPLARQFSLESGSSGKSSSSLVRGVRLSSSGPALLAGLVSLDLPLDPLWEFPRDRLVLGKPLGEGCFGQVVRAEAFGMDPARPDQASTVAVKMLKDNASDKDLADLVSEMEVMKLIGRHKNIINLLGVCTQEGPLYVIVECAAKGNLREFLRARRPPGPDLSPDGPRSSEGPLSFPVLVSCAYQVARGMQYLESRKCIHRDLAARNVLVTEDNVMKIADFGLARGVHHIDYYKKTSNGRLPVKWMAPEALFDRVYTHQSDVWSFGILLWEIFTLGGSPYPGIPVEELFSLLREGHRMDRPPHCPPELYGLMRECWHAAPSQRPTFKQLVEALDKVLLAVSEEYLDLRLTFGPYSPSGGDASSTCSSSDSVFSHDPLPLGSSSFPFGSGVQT
Protocol: In this experiment, the inhibitory effect of the compounds on FGFR4 kinase activity was tested by a fluorescence resonance energy transfer (TR-FRET) method, and the half maximal inhibitory concentration (IC50) of the compounds on the FGFR4 kinase activity was determined.
(§5) 2) 1˜5 μL of diluted solution in gradient of the compound was added.
(§6) 3) 1˜5 μL of a substrate mixture containing substrate polypeptide with a final concentration of 5˜50 nM and ATP with a final concentration of 10˜200 μM was added.
(§7) 4) The mixture was incubated for 0.5˜3 hours at room temperature.
(§8) 5) 10 μL of EDTA and a test solution comprising labeled antibody were added, and the plate was incubated for 1 hour at room temperature.
(§9) 7) The inhibition rates were calculated according to the fluorescence signal values.

[3] = target: FGFR1 kinase (Homo sapiens (Human), UniProt P11362); assay: Enzymologic experiment of FGFR1 (TR-FRET); type: biochemical; settings: FGFR1 kinase activity
Sequence of FGFR1 kinase (P11362 22-822): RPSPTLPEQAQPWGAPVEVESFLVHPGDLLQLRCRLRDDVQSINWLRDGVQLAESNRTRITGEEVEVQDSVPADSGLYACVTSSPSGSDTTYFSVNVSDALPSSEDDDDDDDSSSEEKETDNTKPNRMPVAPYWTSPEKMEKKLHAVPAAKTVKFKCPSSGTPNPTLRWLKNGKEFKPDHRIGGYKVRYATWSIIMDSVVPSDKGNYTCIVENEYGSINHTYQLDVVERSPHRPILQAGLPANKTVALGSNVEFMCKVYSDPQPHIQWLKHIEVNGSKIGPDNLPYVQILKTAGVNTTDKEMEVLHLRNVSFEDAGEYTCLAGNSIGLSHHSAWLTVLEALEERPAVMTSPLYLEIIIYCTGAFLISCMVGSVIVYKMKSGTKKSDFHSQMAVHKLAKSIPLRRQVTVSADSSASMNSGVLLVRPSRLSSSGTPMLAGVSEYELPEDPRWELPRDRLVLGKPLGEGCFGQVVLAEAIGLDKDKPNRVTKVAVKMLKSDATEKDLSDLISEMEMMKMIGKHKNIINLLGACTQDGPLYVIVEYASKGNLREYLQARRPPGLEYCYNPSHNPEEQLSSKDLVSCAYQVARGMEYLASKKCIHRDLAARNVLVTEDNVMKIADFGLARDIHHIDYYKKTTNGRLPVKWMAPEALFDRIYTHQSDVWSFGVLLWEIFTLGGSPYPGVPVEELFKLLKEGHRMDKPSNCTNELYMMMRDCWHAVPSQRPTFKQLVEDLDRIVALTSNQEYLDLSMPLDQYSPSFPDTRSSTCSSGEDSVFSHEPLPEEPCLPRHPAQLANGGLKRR
Protocol: In this experiment, the inhibitory effect of the compounds on FGFR1 kinase activity was tested by a fluorescence resonance energy transfer (TR-FRET) method, and the half maximal inhibitory concentration (IC50) of the compounds on the FGFR1 kinase activity was determined.
1) 1˜5 μL of FGFR1 enzyme solution was added to a 384-well plate, and the final concentration of the enzyme was 0.1˜5 nM.
as §5, §6, §7, §8
6) The fluorescence signal values of each plate were determined by a microplate reader at 665 nm.
as §9
8) The IC50 of the compound was obtained by curve fitting according to the inhibition rates at different concentrations, and the enzymatic activity of the specific example compounds is shown in Table 1.

[4] = system: HuH-7 cells; assay: Inhibition of HuH-7 cell proliferation (CellTiter-Glo); type: cell-based; settings: Homo sapiens, read-out: HuH-7 IC50
Protocol: In this experiment, the inhibitory effect of the compounds on HuH-7 cell proliferation was tested by a CellTiter-Glo method, and the half maximal inhibitory concentration (IC50) of the compounds on the activity of cell proliferation was determined.
1) A 96-well cell culture plate was seeded with 50˜100 μL of HuH-7 cell suspension at a density of 1˜5×10^4 cells/ml. The culture plate was incubated in an incubator for 16˜24 hours (37° C., 5% CO2).
as §1
3) 50˜100 μL of CellTiter-Glo reagent was added to each well. Then, the culture plate was shaken or left to stand for 5˜30 minutes at room temperature.
as §3, §4
(§10) 6) The IC50 of the compound was obtained by curve fitting according to the inhibition rates at different concentrations, and the cell activity of the specific example compounds is shown in Table 2.

[5] = system: SK-HEP-1 cells; assay: Inhibition of SK-HEP-1 cell proliferation (CellTiter-Glo); type: cell-based; settings: Homo sapiens, read-out: SK-HEP-1 IC50
Protocol: In this experiment, the inhibitory effect of the compounds on SK-HEP-1 cell proliferation was tested by a CellTiter-Glo method, and the half maximal inhibitory concentration (IC50) of the compounds on the activity of cell proliferation was determined.
1) A 96-well cell culture plate was seeded with 50˜100 μL of SK-HEP-1 cell suspension at a density of 1˜5×10^4 cells/ml. The culture plate was incubated in an incubator for 16˜24 hours (37° C., 5% CO2).
as §1, §2, §3, §4, §10

[6] = Pharmacokinetic (PK) analysis in rats; type: in vivo, Sprague Dawley (SD) rats; settings: SD rats, single intragastric administration, 5 mg/kg
Protocol: 1) 0.2 ml of intravenous blood was collected and placed in a K2EDTA test tube. The blood was centrifuged at room temperature at the speed of 1000˜3000×g for 5˜20 minutes to isolate the plasma, which was then stored at −80° C.
2) 160 μL of acetonitrile was added to 40 μL of plasma sample for precipitation, and then the mixture was centrifuged at the speed of 500˜2000×g for 5˜20 minutes.
3) 100 μL of treated solution was taken, and the concentration of the test compound was analyzed by LC/MS/MS. The LC/MS/MS analytical instrument was AB Sciex API 4000. • Liquid chromatography analysis: • Condition of Liquid chromatography: Shimadzu LC-20AD pump • Chromatographic column: phenomenex Gemiu 5 um C18 50×4.6 mm • Mobile phase: Solution A is 0.1% formic acid aqueous solution, and Solution B is acetonitrile • Flow rate: 0.8 mL/min • Elution time: 0-3.5 minutes, the eluent was used as follows: […]

[7] = Hep 3B cell proliferation, 72 hours, CellTiter-Glo, read-out: Hep 3B IC50
[8] = HuH-7 cell proliferation, 72 hours, CellTiter-Glo
[9] = SK-HEP1, SK-HEP-1 cell proliferation, 72 hours, CellTiter-Glo

| SMILES | IC50 [1, 7] [nM] | IC50 [2] [nM] | IC50 [3] [nM] | IC50 [4, 8] [nM] | IC50 [5, 9] [nM] | Peak Time tmax ([6]; (sampling in hours)) [h] | AUC(0-t) ([6]; Sprague-Dawley, rat, plasma, po, read-out: Area Under Curve AUC0-t) [ng·h/mL] | AUC(0-inf) ([6]; Sprague-Dawley, rat, plasma, po, read-out: Area Under Curve AUC0-∞) [ng·h/mL] | half-life ([6]; Sprague-Dawley, rat, plasma, po, read-out: Half-Time t1/2 (converted)) [h] | MRT ([6]; Sprague-Dawley, rat, plasma, po, read-out: Mean Residence Time MRT) [h] | Cmax ([6]; Sprague-Dawley, rat, plasma, po, read-out: Plasma Concentration Cmax) [ng/mL] | IC50 ([1]; 72 h, read-out: Hep 3B IC50, Hep 3B cell proliferation, 72 hours, CellTiter-Glo) [nM] | IC50 ([4]; Huh-7, 72 h) [nM] | IC50 ([5]; SK-HEP1, 72 h) [nM] |
| --- | --- | --- | --- | --- | --- | --- | --- | --- | --- | --- | --- | --- | --- | --- |
| COC[C@@H](C)Oc1cc(NC(=O)N2CCCc3cc(CN4CCOC4=S)c(C=O)nc32)ncc1C#N [Example 48, (R)-N-(5-Cyano-4-((1-methoxypropan-2-yl)oxy)pyridin-2-yl)-7-formyl-6-((2-thiooxazolidin-3-yl)methyl)-3,4-dihydro-1,8-naphthyridin-1(2H)-carboxamide] | 13.1 | 8.48 | > 10000 | 15.6 | > 10000 |  |  |  |  |  |  |  |  |  |
| N#Cc1cnc(NC(=O)N2CCCc3cc(CN4CCOCC4=O)c(C=O)nc32)cc1NCCN1CCCC1 [Example 2, N-(5-Cyano-4-((2-(pyrrolidin-1-yl)ethyl)amino)pyridin-2-yl)-7-formyl-6-((3-carbonylmorpholino)methyl)-3,4-dihydro-1,8-naphthyridin-1(2H)-carboxamide] |  | 2.9 | > 10000 |  |  |  |  |  |  |  |  |  |  |  |
| COCCNc1cc(NC(=O)N2CCCc3cc(CN4C(=O)OCC45CC5)c(C=O)nc32)ncc1C#N [Example 43, N-(5-Cyano-4-((2-methoxyethyl)amino)pyridin-2-yl)-7-formyl-6-((5-carbonyl-6-oxa-4-azaspiro[2.4]heptan-4-yl)methyl)-3,4-dihydro-1,8-naphthyridin-1(2H)-carboxamide] | 8.1 | 4.41 | > 10000 | 8.1 | > 10000 |  |  |  |  |  |  |  |  |  |
| COCCNc1cc(NC(=O)N2CCCc3cc(CN4CCCN(C)CC4=O)c(C=O)nc32)ncc1C#N [Example 7, N-(5-Cyano-4-((2-methoxyethyl)amino)pyridin-2-yl)-7-formyl-6-((4-methyl-2-carbonyl-1,4-diazoheptyl-1-yl)methyl)-3,4-dihydro-1,8-naphthyridin-1(2H)-carboxamide] | 1.4 | 0.6 | > 10000 | 10.2 | > 10000 |  |  |  |  |  |  |  |  |  |
| CC1COC(=O)N1Cc1cc2c(nc1C=O)N(C(=O)Nc1cc(S[C@@H]3CCOC3)c(C#N)cn1)CCC2 (stereo partly drawn) [Example 44, N-(5-Cyano-4-(((R)-tetrahydrofuran-3-yl)thio)pyridin-2-yl)-7-formyl-6-(((S)-4-methyl-2-carbonyloxazolidin-3-yl)methyl)-3,4-dihydro-1,8-naphthyridin-1(2H)-carboxamide] | 11.5 | 6.5 | > 10000 | 35.4 | > 10000 |  |  |  |  |  |  |  |  |  |
| COCCNc1cc(NC(=O)N2CCCc3cc(CN4C(=O)COCC45CC5)c(C=O)nc32)ncc1C#N [Example 21, N-(5-Cyano-4-((2-methoxyethyl)amino)pyridin-2-yl)-7-formyl-6-((5-carbonyl-7-oxa-4-azaspiro[2.5]octane-4-yl)methyl)-3,4-dihydro-1,8-naphthyridin-1(2H)-carboxamide] | 8.6 | 1.71 | > 10000 | 13.4 | > 10000 |  |  |  |  |  |  |  |  |  |
| CO[C@@H]1CCN(c2cc(NC(=O)N3CCCc4cc(CN5CCN(C)CC5=O)c(C=O)nc43)ncc2C#N)C1 [Example 64, (R)-N-(5-Cyano-4-(3-methoxypyrrolidin-1-yl)pyridin-2-yl)-7-formyl-6-((4-methyl-2-carbonylpiperazin-1-yl)methyl)-3,4-dihydro-1,8-naphthyridin-1(2H)-carboxamide] | 5.3 | 1.62 | > 10000 | 14.6 | > 10000 |  |  |  |  |  |  |  |  |  |
| C[C@H]1COC(=O)N1Cc1cc2c(nc1C=O)N(C(=O)Nc1cc(S[C@H]3CCOC3)c(C#N)cn1)CCC2 [Example 45, N-(5-Cyano-4-(((S)-tetrahydrofuran-3-yl)thio)pyridin-2-yl)-7-formyl-6-(((S)-4-methyl-2-carbonyloxazolidin-3-yl)methyl)-3,4-dihydro-1,8-naphthyridin-1(2H)-carboxamide] | 14.2 | 4.66 | > 10000 | 32.2 | > 10000 |  |  |  |  |  |  |  |  |  |
| COC[C@H](C)Nc1cc(NC(=O)N2CCCc3cc(CN4CCCCOC4=O)c(C=O)nc32)ncc1C#N [Example 30] | 4.6 | 2.5 | > 10000 | 13.4 | > 10000 |  |  |  |  |  |  |  |  |  |
| CC1OCCC1Sc1cc(NC(=O)N2CCCc3cc(CN4CCOCC4=O)c(C=O)nc32)ncc1C#N (stereo not shown) [Example 3, N-(5-Cyano-4-((2-methyltetrahydrofuran-3-yl)thio)pyridin-2-yl)-7-formyl-6-((3-carbonylmorpholino)methyl)-3,4-dihydro-1,8-naphthyridin-1(2H)-carboxamide] | 13.1 | 5.4 | > 10000 | 40.9 | > 10000 |  |  |  |  |  |  |  |  |  |
| N#Cc1cnc(NC(=O)N2CCCc3cc(CN4CCCCOC4=O)c(C=O)nc32)cc1S[C@H]1CCOC1 [Example 36] | 8 | 4.25 | > 10000 | 20.4 | > 10000 |  |  |  |  |  |  |  |  |  |
| COc1ncccc1CNc1cc(NC(=O)N2CCCc3cc(CN4CCOCC4=O)c(C=O)nc32)ncc1C#N [Example 57, N-(5-Cyano-4-(((2-methoxypyridin-3-yl)methyl)amino)pyridin-2-yl)-7-formyl-6-((3-carbonylmorpholino)methyl)-3,4-dihydro-1,8-naphthyridin-1(2H)-carboxamide] | 10.2 | 7.63 | > 10000 | 24.3 | > 10000 |  |  |  |  |  |  |  |  |  |
| CO[C@H]1CCC1Oc1cc(NC(=O)N2CCCc3cc(CN4CCOCC4=O)c(C=O)nc32)ncc1C#N (stereo partly drawn) [Example 62, N-(5-Cyano-4-cis-((1,2)-2-methoxycyclobutoxy)pyridin-2-yl)-7-formyl-6-((3-carbonylmorpholino)methyl)-3,4-dihydro-1,8-naphthyridin-1(2H)-carboxamide] |  |  | > 10000 |  |  | 2 | 4020 | 4060 | 0.85 | 2.98 | 2810 | 3.4 | 4.2 | > 10000 |
